The source of these data is US20210354135A1, “SYSTEMS AND METHODS FOR EVALUATING AN ABILITY OF A BLOOD SAMPLE TO COAGULATE, CLOT, AND/OR OCCLUDE” (The Texas A&M University System, priority 2020, published 2021).

In assay [1] the test system is recalcified citrated whole blood. In words: Pressure-sensor readout of clot formation and clotting time in tortuous microfluidic device perfused with recalcified citrated whole blood. Format: cell-based, human. Conditions: for clotting time (2.5× pressure increase from baseline): increasing concentration of heparin (0-1 IU/ml) or bivalirudin (0-75 ng/mL), FIGS. 20, 22. The text has this: Even though microscopic analysis of real-time thrombus formation in the microfluidic device may be useful in labs, the microfluidic device may also be deployed and utilized at the point-of-care. In the interest of utilizing the microfluidic device at the point-of-care, the microfluidic device was connected to a syringe pump, a disposable pressure sensor, and a display monitor. Given that each of these components are already a part of most extracorporeal circuits, these components may be conveniently integrated in broad critical care settings. Additionally, using these components, clot formation may be automatically tracked in real-time by measuring changes in fluid pressure caused by increasing channel occlusion inside the device, as described above with respect to system 10.
It was found during testing of the microfluidic device that as recalcified citrated whole blood was perfused and formed clots inside the microfluidic device, pressure increases typical of the dynamics of clotting in blood vessel in vivo, or in an in vitro hollow channel, was seen, the pressure increases comprising three stages—a steady reaction time, a growth phase, and saturation. […] Next, a clotting time measurement was developed for these pressure readouts to serve as a quantitative end point in lab and clinical settings.
The experimental microfluidic described above was fabricated from PDMS soft lithography to a size that would fit on a standard (e.g., 75 mm×50 mm) microscope slide. The cured PDMS from the master mold was bonded to a […] PDMS-coated glass slide and punched with inlet and outlet 1.5 mm holes. Next, the device was coated with rat tail type I collagen at 100 μg/ml infused into the microfluidic device which was pre-treated with silane. The microfluidic device was incubated at 37° C. for three to four hours and washed with saline solution prior to blood perfusion. At the inlet side of the microfluidic device, a reservoir was created by force-fitting an open slip-tip syringe and fresh blood was stored therein. At the outlet, tubing was connected to an inline, disposable pressure sensor configured to determine pressure change across the microfluidic device. The other end of the pressure sensor was connected to a syringe pump which pulled the stored blood at a mean arteriole wall shear rate of 1200 1/s. Thrombus formation was observed using time-lapse imaging (10×, NA 0.35) of fluorescently labelled fibrinogen (15 μg/ml, Alexa Fluor 647, Invitrogen) and platelets (10 μl/ml Human CD41-PE (clone: VIPL3), Invitrogen) added directly to the blood and incubated at room temperature for approximately eight minutes for whole blood imaging. Fluorescence microscopy of fibrin and platelets was then performed at an interval of approximately 30 seconds.

In assay [2] the test system is whole blood. As to the kind of experiment: Fibrin area coverage by fluorescence microscopy in collagen-coated tortuous microfluidic device perfused with whole blood. Type of assay: cell-based, human. The text has this: A microfluidic device was then fabricated and mounted onto a microscope for visualization. The microfluidic device was also connected the to a syringe pump to introduce flow therethrough in a configuration similar, in at least some respects, to that of system 10 shown in FIG. 1. Blood first entered into a large reservoir (4.7 mm wide) and then flow split into four smaller parallel stenosed tortuous channels (200 μm wide); followed by convergence of the flow into an outlet similar to the inlet. The 4-channel design is partially analogous to a vessel network in vivo in which clots may form or detach locally, but the pressure still increases due to the systemic thrombosis. In addition, the total width and length of the device were designed to fit on a standard glass microscope slide for practical ease. Each device contains multiple single microchannel sections that were optimized to create maximum tortuosity (alternating 30° bends, corresponding to TI=3.4), to expose flowing whole blood to varying shear rates due to both stenosis and tortuosity, thus promoting rapid clot formation and occlusion. To enable more rapid cell activation and adhesion, the surface of the microchannels were further functionalized within the device with collagen type I, which is a commonly applied platelet agonist. The microfluidic device was operated at a flowrate of 70 μl/min, leading to a pre-stenosed mean wall shear rate of 1,200 reciprocal seconds (1/s) corresponding to typical arteriolar flow, and a wall shear gradient of 935 reciprocal second-millimeters (1/(s-m)) in the straight region following the pre-stenosed reservoir.
Referring to FIGS. 13, 14, re-calcified citrated whole blood was perfused through the microfluidic device for a maximum of 10 minutes at the 70 μl/min, less than 1 mL of blood was consumed, and the formation of various sized thrombi was detected throughout its entire length using fluorescence imaging 205, 207 shown in FIGS. 13, 14, respectively. […]

Consider `NC[C@H]1CC[C@H](C(=O)O)CC1` [tranexamic acid], for which the “blood flow pressure curve over time” value in assay [1] (increasing doses of tranexamic acid 0-4 mg/mi in whole blood, FIG. 25) is “relative shift in pressure curve to the left”. Further, in assay [1] (increasing doses of tranexamic acid 0-4 mg/mi in whole blood, FIG. 26), the clotting time result is listed as “decrease in clotting time”.

On to unfractionated heparin, for which the “blood flow pressure increase over time” value in assay [1] (heparin 0-1 IU/ml added into blood, relative to normal controls, FIG. 19) is on record as “the pressure increase shifted relative to normal controls”. In assay [1], the “clotting time (2.5× pressure increase from baseline)” value is given as “clotting time decreased as concentration increased”. In addition, the fibrin area coverage result in assay [2] (UFH 0-1 IU/mL added to whole blood, fluorescently labelled fibrin, FIGS. 15, 16) is listed as “decrease in fibrin area coverage”.

Turning to bivalirudin, the “blood flow pressure increase over time” value in assay [1] (bivalirudin 0-75 ng/mL added into blood, FIG. 21) is “a similar trend”. The “clotting time (2.5× pressure increase from baseline)” value in assay [1] was “clotting time decreased as concentration increased”. The fibrin area coverage entry in assay [2] (bivalirudin 0-100 ng mL−1 added to whole blood, FIGS. 17, 18) was “reduced fibrin”; in assay [2] (bivalirudin at 75 ng/ml in whole blood, FIGS. 17, 18), “nearly complete clearance”.
